The record followed here is patent US9238644B2, “VEGFR3 inhibitors” (CANCER THERAPEUTICS CRC PTY LIMITED, priority 2012, dated 2016).

The structures appear in SMILES notation. pIC50: −log10 of the molar value.

The target of assay [1] is VEGFR3 cytoplasmic domain (Homo sapiens, UniProt P35916). Nature of the assay: VEGFR3 Biochemical assay (AlphaScreen). Conditions: N-terminal GST-fusion enzyme, 500 μM ATP, 90 minutes at 30 degree Celsius (modified form: Hexa-His-fusion, 1 μM ATP). (Bead proximity is the source of the signal in Alpha formats.)
For another assay, the target named is VEGFR3 (Homo sapiens (Human), UniProt P35916). Nature of the assay: VEGFR3 Phospho ELISA assay. In kind it is cell-based. The note with it: HMVEC-dLyAD cells, treated 1 hour, VEGFC stimulated; phospho VEGFR3 relative to Total VEGFR3. (In general: An ELISA detects its analyte on a solid surface through an enzyme-linked reagent.)
The target of the next assay is VEGFR2 (Homo sapiens (Human), UniProt P35968). The assay can be described thus: VEGFR2 Phospho ELISA assay. The note with it: HUVEC, treated 1 hour, VEGF stimulated; phospho VEGFR2 relative to Total VEGFR2.
Chain of VEGFR2 (P35968 20-1356): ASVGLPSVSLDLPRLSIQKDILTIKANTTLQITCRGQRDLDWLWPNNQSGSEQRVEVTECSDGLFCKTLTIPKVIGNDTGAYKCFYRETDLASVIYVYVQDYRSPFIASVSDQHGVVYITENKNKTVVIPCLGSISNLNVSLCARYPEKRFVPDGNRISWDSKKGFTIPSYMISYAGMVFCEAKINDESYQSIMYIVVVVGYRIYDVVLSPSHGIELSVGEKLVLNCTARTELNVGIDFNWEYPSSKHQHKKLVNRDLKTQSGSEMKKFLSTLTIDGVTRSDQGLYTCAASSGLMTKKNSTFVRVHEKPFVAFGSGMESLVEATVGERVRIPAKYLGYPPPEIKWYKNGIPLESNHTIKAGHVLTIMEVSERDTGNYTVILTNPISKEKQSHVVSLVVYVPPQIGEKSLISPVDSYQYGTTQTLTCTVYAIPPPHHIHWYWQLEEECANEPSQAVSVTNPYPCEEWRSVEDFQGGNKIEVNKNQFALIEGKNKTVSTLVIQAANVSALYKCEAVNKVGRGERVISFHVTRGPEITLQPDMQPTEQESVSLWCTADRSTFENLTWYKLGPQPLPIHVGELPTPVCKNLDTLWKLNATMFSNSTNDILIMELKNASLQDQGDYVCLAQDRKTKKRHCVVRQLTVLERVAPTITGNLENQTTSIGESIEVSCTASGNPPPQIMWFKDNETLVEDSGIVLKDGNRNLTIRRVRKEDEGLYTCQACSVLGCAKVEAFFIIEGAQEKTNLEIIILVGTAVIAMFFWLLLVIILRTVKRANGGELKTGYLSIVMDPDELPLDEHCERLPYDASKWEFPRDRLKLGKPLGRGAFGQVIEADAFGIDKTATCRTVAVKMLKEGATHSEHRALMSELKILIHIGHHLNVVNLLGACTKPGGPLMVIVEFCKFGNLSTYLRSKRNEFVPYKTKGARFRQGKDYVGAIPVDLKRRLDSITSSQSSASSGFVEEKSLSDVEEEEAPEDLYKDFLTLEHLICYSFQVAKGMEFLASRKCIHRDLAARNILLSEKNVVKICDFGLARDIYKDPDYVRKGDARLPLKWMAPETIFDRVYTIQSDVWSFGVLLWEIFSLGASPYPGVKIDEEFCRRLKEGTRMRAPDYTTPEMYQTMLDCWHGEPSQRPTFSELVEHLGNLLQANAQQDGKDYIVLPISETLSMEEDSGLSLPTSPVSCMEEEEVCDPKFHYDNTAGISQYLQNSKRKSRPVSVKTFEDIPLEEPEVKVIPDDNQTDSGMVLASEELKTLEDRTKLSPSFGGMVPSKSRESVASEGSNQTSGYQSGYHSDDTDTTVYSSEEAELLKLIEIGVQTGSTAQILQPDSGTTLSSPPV

Chain of VEGFR3 cytoplasmic domain (P35916 25-1363 limits assumed): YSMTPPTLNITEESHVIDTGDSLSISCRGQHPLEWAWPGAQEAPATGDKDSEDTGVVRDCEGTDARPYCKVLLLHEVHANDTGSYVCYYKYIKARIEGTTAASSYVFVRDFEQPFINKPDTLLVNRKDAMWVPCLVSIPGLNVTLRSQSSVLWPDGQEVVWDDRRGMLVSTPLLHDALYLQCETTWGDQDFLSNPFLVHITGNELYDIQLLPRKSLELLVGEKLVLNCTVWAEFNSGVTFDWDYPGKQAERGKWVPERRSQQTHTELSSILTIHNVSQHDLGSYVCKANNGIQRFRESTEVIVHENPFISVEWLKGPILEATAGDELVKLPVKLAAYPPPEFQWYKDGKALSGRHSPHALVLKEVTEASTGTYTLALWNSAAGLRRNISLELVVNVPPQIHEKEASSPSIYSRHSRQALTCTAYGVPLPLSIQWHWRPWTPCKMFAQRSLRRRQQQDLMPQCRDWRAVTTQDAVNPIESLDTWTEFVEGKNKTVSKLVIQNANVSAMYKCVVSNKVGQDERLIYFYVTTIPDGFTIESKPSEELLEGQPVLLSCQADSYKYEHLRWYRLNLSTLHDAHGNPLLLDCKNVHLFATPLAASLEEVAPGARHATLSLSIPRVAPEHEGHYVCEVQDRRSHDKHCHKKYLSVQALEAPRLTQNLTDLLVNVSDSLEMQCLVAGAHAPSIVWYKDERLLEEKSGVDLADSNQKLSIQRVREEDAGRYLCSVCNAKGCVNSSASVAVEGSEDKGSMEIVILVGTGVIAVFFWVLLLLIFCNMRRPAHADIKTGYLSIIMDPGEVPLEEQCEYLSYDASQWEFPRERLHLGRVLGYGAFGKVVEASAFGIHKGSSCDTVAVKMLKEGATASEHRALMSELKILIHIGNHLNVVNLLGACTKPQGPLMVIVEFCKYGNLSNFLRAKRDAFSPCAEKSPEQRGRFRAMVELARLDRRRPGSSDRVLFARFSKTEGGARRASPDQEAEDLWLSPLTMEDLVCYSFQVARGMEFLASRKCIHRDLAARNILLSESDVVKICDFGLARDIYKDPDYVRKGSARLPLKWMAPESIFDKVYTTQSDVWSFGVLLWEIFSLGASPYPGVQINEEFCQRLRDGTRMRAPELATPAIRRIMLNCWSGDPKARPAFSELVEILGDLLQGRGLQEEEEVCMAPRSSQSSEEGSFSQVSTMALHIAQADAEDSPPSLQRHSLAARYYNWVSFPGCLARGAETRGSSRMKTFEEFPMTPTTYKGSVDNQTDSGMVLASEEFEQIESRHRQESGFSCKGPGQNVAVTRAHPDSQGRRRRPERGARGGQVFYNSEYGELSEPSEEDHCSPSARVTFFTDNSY
Chain of VEGFR3 (P35916 25-1363): as the sequence (P35916 25-1363 limits assumed) above

As a reminder, the pIC50 is the negative decadic logarithm of the IC50, by convention in mol/L. Higher therefore signals a low IC50. Consider `CCC(C(N)=O)c1ccccc1CCc1nc(Nc2ccc(C3CCNCC3)cc2)ncc1C(F)(F)F` (racemic) [Compound 1, 2-(2-(2-(2-((4-(piperidin-4-yl)phenyl)amino)-5-(trifluoromethyl)pyrimidin-4-yl)ethyl)phenyl)butanamide], for which the negative-log IC50 (pIC50) in assay [1] is 7.04; on VEGFR3, 6.76; against VEGFR2, under 5.00.
Compound `CC(C(N)=O)c1ccccc1CCc1nc(Nc2cnn(C3CCNCC3)c2)ncc1C(F)(F)F` (racemic) [Compound 56, 2-(2-(2-(2-((1-(piperidin-4-yl)-1H-pyrazol-4-yl)amino)-5-(trifluoromethyl)pyrimidin-4-yl)ethyl)phenyl)propanamide] showed a pIC50 against VEGFR2 of 5.65.
The compound `CC(C(N)=O)c1ccccc1CCc1nc(Nc2cnn(C3CCN(C)CC3)c2)ncc1C(F)(F)F` (single isomer, unassigned) [Compound 57-2A, 2-(2-(2-(2-((1-(1-Methylpiperidin-4-yl)-1H-pyrazol-4-yl)amino)-5-(trifluoromethyl)pyrimidin-4-yl)ethyl)phenyl)propanamide] had a negative logarithm of the IC50 (pIC50) at VEGFR2 of 6.42.
As to `NC(=O)C1(c2ccccc2CCc2nc(Nc3ccc(C(F)(F)F)nc3)ncc2C(F)(F)F)CC1` [Compound 10], in assay [1], the pIC50 is 7.04.
